Entries after “also recorded” stand apart in the source; their conditions may differ. Where a name gives a salt, the structure may show the parent alone.
Assays:
Solubility in water = assay type: physicochemical
[1] = Human plasma stability study (37.5° C.); assay type: in vitro ADME; conditions: for half-life: human, plasma
Procedure: (§1) The plasma studies were done at three prodrug concentrations: 200, 100 and 50 μg/ml of prodrug. The experimental procedure was as follows: The compound to be tested was taken from a stock aqueous solution of 5 mg/ml and added to the plasma to give the desired prodrug concentration. […] Before centrifugation 200 μl of methanol was added to further precipitate the plasma proteins. The results are expressed in half-lives in hours.
(§2) The chemical and plasma studies were followed by HPLC using a RP C-18 column (150 mm) and a precolumn (50 mm). […] Chart speed was 1 inch/10 minutes.

[2] = Chemical stability study in buffers (hydrolysis half-life, HPLC); assay type: physicochemical; conditions: buffer, read-out: t1/2 (chemical stability) (converted)
Procedure: In the examples, chemical stability studies for rapamycin and the prodrugs were done at 20 μg/ml with an ionic strength of 0.5. Stabilities at pH 3.3 (0.05M acetate buffer) and pH 7.4 (0.05M phosphate buffer) were studied at 25° and 37.5° C. No antioxidants were added and the buffers were not deoxygenated.
as §2

[3] = Rat liver homogenate stability study (37.5° C.); assay type: in vitro ADME, male albino Sprague-Dawley rats; conditions: 20% rat liver homogenate, pH 7.4, 50 μg/ml, read-out: t1/2 (liver homogenate stability) (converted)
Procedure: (§3) The liver homogenate studies were done using livers freshly obtained from male albino Sprague-Dawley rats. A 20% liver homogenate was prepared in Sorensen's buffer at pH 7.4. Chemical stability studies of rapamycin and the two prodrugs of Examples 2 and 3 were carried out at concentrations of 20, 50 and 50 μg/ml respectively, at 37.5° C.

[4] = Stability to light and to long stirring; assay type: physicochemical
[5] = Rat plasma stability study (37.5° C.); assay type: in vitro ADME, Sprague-Dawley male albino rats; conditions: for half-life: rat, plasma, read-out: t1/2 (plasma stability) (converted)
Procedure: as §1, §2

[6] = Products of decomposition/hydrolysis in plasma and homogenate studies (HPLC, TLC)
Procedure: as §3

[7] = background statement; cited from earlier work
[8] = human plasma, 50 μg/ml, 37.5° C., read-out: t1/2 (plasma stability) (converted)

CO[C@H]1C[C@@H]2CC[C@@H](C)[C@@](O)(O2)C(=O)C(=O)N2CCCC[C@H]2C(=O)O[C@H]([C@H](C)C[C@@H]2CC[C@@H](O)[C@H](OC)C2)CC(=O)[C@H](C)/C=C(\C)[C@@H](OC(=O)CN(C)C)[C@@H](OC)C(=O)[C@H](C)C[C@H](C)/C=C/C=C/C=C/1C [Example 2, Methanesulfonic Acid Salt of Mono-(28)-N,N Dimethylglycinate Ester of Rapamycin]
solubility (Solubility in water): > 50 mg/mL | t1/2 (plasma stability) ([1]; human plasma, 50 μg/ml, 37.5° C.): 5.0 h | half-life [1, 8]: 5 h | half-life ([1]; human plasma, 100 μg/ml, 37.5° C., read-out: t1/2 (plasma stability) (converted)): 4.8 h | half-life ([1]; human plasma, 200 μg/ml, 37.5° C., read-out: t1/2 (plasma stability) (converted)): 5.6 h | half-life ([2]; pH 3.3, pH 3.3, 25° C.): 73 h | half-life ([2]; pH 7.4, pH 7.4, 25° C.): 45 h | half-life [3]: 4.5 h | stability on prolonged exposure to light [4]: slow discoloration of the material; also recorded: appears to discolor upon prolonged exposure to light | stability to long stirring times ([4]; salt form): unstable to long stirring times | t1/2 (plasma stability) ([5]; 50 μg/ml): 1.75 h | half-life ([5]; 50 μg/ml): 1.8 h | half-life ([5]; 100 μg/ml): 1.8 h | half-life ([5]; 200 μg/ml): 2.5 h

CCN(CC)CCC(=O)O[C@@H]1/C(C)=C/[C@@H](C)C(=O)C[C@@H]([C@H](C)C[C@@H]2CC[C@@H](O)[C@H](OC)C2)OC(=O)[C@@H]2CCCCN2C(=O)C(=O)[C@]2(O)O[C@@H](CC[C@H]2C)C[C@H](OC)/C(C)=C/C=C/C=C/[C@@H](C)C[C@@H](C)C(=O)[C@@H]1OC [Example 3, Mono-(28)-3-(N,N-Diethylamino)propionate Hydrochloride Salt Ester of Rapamycin]
solubility (Solubility in water): > 50 mg/mL | half life of the prodrug compared with the others [1]: the shortest | time within which half of the prodrug decomposed into products including mainly rapamycin [1]: two and one-half | half-life ([1]; t1/2 (plasma stability)): 2.5 h | observed product of hydrolysis / decomposition [6]: rapamycin being the only observed product of hydrolysis | half-life [3]: 3.7 h | stability on prolonged exposure to light [4]: unstable to prolonged exposure to light; also recorded: appears to discolor upon prolonged exposure to light | half-life ([5]; 100 μg/ml): 58 h | half-life ([5]; 200 μg/ml): 60 h

CO[C@H]1C[C@@H]2CC[C@@H](C)[C@@](O)(O2)C(=O)C(=O)N2CCCC[C@H]2C(=O)O[C@H]([C@H](C)C[C@@H]2CC[C@@H](O)[C@H](OC)C2)CC(=O)[C@H](C)/C=C(\C)[C@@H](OC(=O)CCCN2CCCC2)[C@@H](OC)C(=O)[C@H](C)C[C@H](C)/C=C/C=C/C=C/1C [Example 4, Mono-(28)-4'-(N-pyrrolidino)-butyrate Hydrochloride Salt Ester of Rapamycin]
solubility (Solubility in water): ~15 mg/mL | stability on prolonged exposure to light [4]: appears to discolor upon prolonged exposure to light

CO[C@H]1C[C@@H]2CC[C@@H](C)[C@@](O)(O2)C(=O)C(=O)N2CCCC[C@H]2C(=O)O[C@H]([C@H](C)C[C@@H]2CC[C@@H](O)[C@H](OC)C2)CC(=O)[C@H](C)/C=C(\C)[C@@H](O)[C@@H](OC)C(=O)[C@H](C)C[C@H](C)/C=C/C=C/C=C/1C [Rapamycin, rapamycin]
Solubility in water [7]: 20 micrograms per milliliter | half-life [1, 8]: 3 h | further degradation (TLC) ([6]; plasma and homogenate studies, TLC): further degraded to other decomposition products | half-life ([2]; pH 3.3, pH 3.3, 25° C.): 35.8 h | half-life ([2]; pH 3.3, pH 3.3, 37.5° C.): 9.9 h | half-life ([2]; pH 7.4, pH 7.4, 25° C.): 47.6 h | half-life ([2]; pH 7.4, pH 7.4, 37.5° C.): 10.2 h | half-life [3]: 5.5 h | half-life ([5]; 50 μg/ml): 2.83 h
